Test results reported in US10968184B2, “Pyrimidine prodrugs for the treatment of viral infections and further diseases” (Janssen Sciences Ireland Unlimited Company, priority 2016, dated 2021).

Tests used:
[1] = in vitro; settings: human, liver microsomes
[2] = in vitro; settings: rat, hepatocytes
[3] = in vitro; settings: simulated gi fluid
[4] = in vitro; settings: rat, plasma
[5] = in vitro; settings: human, plasma
[6] = in vitro; settings: simulated gi fluid; remark: listed apart in the source
[7] = tested on: P-glycoprotein (human MDR1); assay: in vitro; settings: dog, MDCK-MDR1
[8] = Pharmacokinetics in rat after oral administration; assay type: in vivo; settings: SD rats, aqueous solution, 5 mg/kg eq dose, prodrug in plasma; for AUC(0-t): read-out: AUC(0-last) prodrug
Protocol: Pharmacokinetics in rat. Prodrugs were administered orally to SD rats using aqueous solution at 5 mg/kg eq dose. Plasma samples were collected at different time points and the concentration of parent and prodrug was analyzed using LC-MS/MS. PK parameters were calculated using Phoenix WinNonlin 6.3. Cmax (ng/mL) and AUC(0-last) (ng·h/mL) were determined for both prodrug and parent.

[9] = in vitro; settings: rat, liver microsomes
[10] = in vitro; settings: human, hepatocytes

| microsomal CLint at 1 μM [1] | hepatocyte CLint at 1 μM [2] | half-life [3] | half-life at 1 μM [4] | half-life at 1 μM [5] | half-life [6] | melting point | Papp A→B [7] | efflux ratio [7] | Cmax [8] | AUC(0-t) [8] | microsomal CLint at 1 μM [9] | hepatocyte CLint at 1 μM [10] | Structure (SMILES) |
| --- | --- | --- | --- | --- | --- | --- | --- | --- | --- | --- | --- | --- | --- |
| 14 µL/min/mg | 280 µL/min/1e6 cells | > 6 h | > 30 h | > 30 h | > 6 h | 86.1 °C | 20 ×10⁻⁶ cm/s | 3.2 | 88 ng/mL | 144 ng·h/mL | 141 µL/min/mg | 80 µL/min/1e6 cells | CCCC[C@H](CO)Nc1nc(N(C)C)ncc1OC [Compound 5, (R)-2-((2-(dimethylamino)-5-methoxypyrimidin-4-yl)amino)hexan-1-ol] |
| 115 µL/min/mg |  |  | < 0.4 h | < 0.4 h |  |  |  |  |  |  | 27 µL/min/mg |  | CCCC[C@H](CO)Nc1nc(NC2CCCO2)ncc1OC (stereo partly drawn) [Compound 9, (2R)-2-((5-methoxy-2-((tetrahydrofuran-2-yl)amino)pyrimidin-4-yl)-amino)hexan-1-ol] |
| 18 µL/min/mg | 120 µL/min/1e6 cells | > 6 h | > 30 h | > 30 h | > 6 h |  | 6.8 ×10⁻⁶ cm/s | 10 | 129 ng/mL | 206 ng·h/mL | 25 µL/min/mg | 33 µL/min/1e6 cells | CCCC[C@H](CO)Nc1nc(NC)ncc1OC [Compound 6] |
| 88 to 90 µL/min/mg |  |  | 1.4 h | 1.4 h |  |  | 1.8 ×10⁻⁶ cm/s | 33 |  |  | > 347 µL/min/mg |  | CCCC[C@H](CO)Nc1nc(NC2CCCCO2)ncc1OC (stereo partly drawn) [Compound 10, (2R)-2-((5-methoxy-2-((tetrahydro-2H-pyran-2-yl)amino)pyrimidin-4-yl)-amino)hexan-1-ol] |
